{"source": "patent US20220354834A1", "about": "“METHODS AND MATERIALS FOR TREATING NEUROTOXICITY” (Cavion, Inc., priority 2019, published 2022)", "key": {"[1]": {"system": "RPMI-8226 human myeloma xenografts", "assay": "In vivo BTZ and combination (BTZ and CX-8998) anti-tumor (interference) study, tumor volume", "set-up": "species or system athymic nude mouse", "excerpt": "(§1) Care and husbandry of mice complied with USDA (U.S. Department of Agriculture) Animal Welfare Act and START IACUC (Institutional Animal Care and Use Committee) regulations. The protocol was reviewed and approved by START IACUC. Mice were individually housed in Sealsafe® Plus ventilated cages (Techniplast, West Chester, Pa., USA) and fed with Teklad 2919 (Envigo, Somerset, N.J., USA), irradiated, 19% protein, 9% fat and 4% fiber mouse chow. Mice were maintained under controlled environmental conditions (22+/−2° C. temperature, 55+/−10% relative humidity and 12-hour light/dark cycle (7 a.m.-7 p.m.).\n(§2) South Texas Accelerated Research Therapeutics (START) (San Antonio, Tex., USA) conducted this study. […] The 30 mg/kg dose was tolerated in preclinical safety studies and anticipated to result in exposures in excess of the therapeutic range for 28 days. Body weight, TV and animal observations were collected twice per week to day 18 (termination) for vehicle control mice and twice per week to day 28 (termination) for each of the other 3 groups. Mean±SD body weight and TV were analyzed with Kruskal-Wallis and Dunn multiple comparison test at day 18 and with Mann Whitney test at day 28 with statistical significance at p<0.05."}, "[2]": {"system": "β-tubulin", "assay": "β-tubulin polymerization assay in sciatic nerve", "format": "in vivo, Wistar rat", "conditions": "week 8", "protocol": "(§3) Wistar female rats (n=52) (Envigo, Correzzano, Italy) at 10-11 weeks of age were utilized. The study was divided into 2 phases of 4 weeks each. […] Body weight was measured periodically during phase 1 from baseline (day 1) to day 28. At baseline and conclusion of phase 1 (day 28), nerve conduction velocity (NCV) was performed on caudal and sciatic nerves and Dynamic Aesthesiometer Test (DAT) measured mechanical threshold (MT) of the hind paw. […] Body weight was measured periodically from baseline (day 28) to day 56 (termination). NCV and MT were measured in all 4 groups at baseline and on day 35 and 56. […] At termination, sciatic nerves were obtained for β-tubulin polymerization and skin samples were procured for intraepidermal nerve fiber (IENF) density and histopathology.\nAt day 56, animals were euthanized by CO2 inhalation and tissue samples were procured from 4 rats per group. Right sciatic nerve was frozen in liquid nitrogen for β-tubulin polymerization assay and plantar glabrous skin samples were collected for IENF density.\nProtein extracts from sciatic nerves were processed similar to the proteasome assay except for lysis buffer that contained freshly added protease and […] (10 mM sodium orthovanadate, 4 mM phenylmethylsulfonyl fluoride, 1% aprotinin and 20 mM sodium pyrophosphate). Protein extracts were centrifuged (14000 rpm for 10 minutes at 4° C.) to separate soluble (S) free tubulin fractions from polymerized (P) fractions. Supernatants were collected and pellets of polymerized tubulin were resuspended by sonication for 20 seconds in a volume of lysis buffer supplemented with 0.5% sodium deoxycholate (equivalent to S fraction). Protein aliquots (10 μg) were placed onto 13% SDS-PAGE and, after electrophoresis, were transferred to nitrocellulose filters. Immunoblotting analysis was performed using mouse anti-β-tubulin antibody. After incubation with primary antibody, membrane was washed and incubated with horseradish peroxidase conjugated to […] (Perkin Elmer Italia SPA, Monza, Italy). The ECL chemiluminescence system (Amersham GE Healthcare Europe GmbH, Milano, Italy) was used for detection. Band intensity was quantified with Gel Logic 100 Image System (Eastman Kodak, Rochester, N.Y., USA). Final mean values were obtained from triplicate experiments and data were expressed as percentage of P/P+S in treated rats compared to controls."}, "[3]": {"system": "sciatic nerves (BTZ-induced CIPN)", "assay": "CIPN-reversal study: sciatic nerve conduction velocity", "format": "in vivo, Wistar rat", "protocol": "as §3\nNCV (meters/second) was obtained from caudal and sciatic nerves with an electromyography tool (Myto 2, ABN Neuro, Firenze, Italy). Caudal NCV was measured by placement of recording needle electrodes distally in the tail with stimulating needle electrodes 5 cm and 10 cm proximal to recording point. Peak latencies of potentials recorded at the 2 sites after nerve stimulation were determined and NCV was calculated. Sciatic NCV was determined by placement of needle recording electrodes near ankle bone and stimulating electrodes close to thigh. Peak latencies were recorded similar to caudal nerve and NCV was calculated. NCV was performed under standard conditions in a temperature-controlled facility (22±2° C.) and rats were under isoflurane anesthesia with monitoring of vital signs."}, "[4]": {"assay": "In vivo anti-tumor (interference) study: body weight", "set-up": "species or system athymic nude mouse", "conditions": "1 mg/kg BTZ in combination with 30 mg/kg CX-8998 orally once daily, 28 days", "excerpt": "as §1, §2"}, "[5]": {"assay": "CIPN-reversal study: body weight, tolerability, mortality", "format": "in vivo", "protocol": "Rats were housed 2-3 per cage under similar environmental conditions as nude mice in the interference study.\nas §3"}, "[6]": {"system": "hind paw mechanical allodynia (BTZ-induced CIPN)", "assay": "CIPN-reversal study: Dynamic Aesthesiometer Test, mechanical threshold", "format": "in vivo, Wistar rat", "conditions": "BTZ vs BTZ+ CX-8998 3 mg/kg; P > 0.05 ns", "protocol": "as §3\nMT was assessed with the DAT device (Model 37450, Ugo Basile Biological Instruments, Comerio, Italy). After acclimation, a servo-controlled pointed metallic filament (0.5 mm diameter) was placed on plantar surface of the hind paw and exerted a progressive punctate pressure up to 50 grams within 20 seconds. The pressure elicited a voluntary hind paw withdrawal response that was recorded and represented MT index. MT was collected alternatively on each side every 2 minutes on 3 occasions to yield a mean value. Mean MT values represented maximum pressure (grams) tolerated by each rat. Exposure of each animal to mechanical stimulus was limited to 30 seconds."}, "[7]": {"conditions": "BTZ vs BTZ+ CX-8998 3 mg/kg, P > 0.05 ns"}, "[8]": {"conditions": "BTZ vs BTZ+ CX-8998 10 mg/kg, P > 0.05 ns"}, "[9]": {"conditions": "BTZ vs BTZ+ CX-8998 30 mg/kg, P > 0.05 ns"}, "[10]": {"conditions": "BTZ+ CX-8998 3 mg/kg vs BTZ+ CX-8998 10 mg/kg, P > 0.05 ns"}, "[11]": {"conditions": "CTRL vs BTZ+ CX-8998 30 mg/kg, P > 0.05 ns"}, "[12]": {"conditions": "BTZ+ CX-8998 3 mg/kg vs BTZ+ CX-8998 30 mg/kg, P > 0.05 ns"}, "[13]": {"conditions": "BTZ+ CX-8998 10 mg/kg vs BTZ+ CX-8998 30 mg/kg, P > 0.05 ns"}, "[14]": {"conditions": "CTRL vs BTZ+ CX-8998 3 mg/kg, P > 0.05 ns"}, "[15]": {"conditions": "CTRL vs BTZ+ CX-8998 10 mg/kg, P > 0.05 ns"}}, "data": [{"smiles": "CC(C)c1ccc(CC(=O)N[C@H](C)c2ccc(OCC(F)(F)F)cn2)cc1", "note": "[CX-8998, (R)-2-(4-Isopropylphenyl)-N-(1-(5-(2,2,2-Trifluoroethoxy)pyridin-2-yl)ethyl)acetamide]", "values": [{"measurement": "TUMOR GROWTH DAY 18, Difference in rank sum (Dunn's Multiple Comparison Test)", "setting": "[1]; BTZ vs BTZ+ CX-8998, P > 0.05 ns", "result": "−3.000"}, {"measurement": "TUMOR GROWTH DAY 18, Difference in rank sum (Dunn's Multiple Comparison Test)", "setting": "[1]; Vehicle Control vs BTZ+ cx-8998, P < 0.05 *", "result": 10.13}, {"measurement": "TUBULIN POLYMERIZATION, Difference in rank sum (Dunn's Multiple Comparison Test)", "setting": "[2]; [7]", "result": "−4.000"}, {"measurement": "TUBULIN POLYMERIZATION, Difference in rank sum (Dunn's Multiple Comparison Test)", "setting": "[2]; [8]", "result": "−4.000"}, {"measurement": "TUBULIN POLYMERIZATION, Difference in rank sum (Dunn's Multiple Comparison Test)", "setting": "[2]; [9]", "result": 15.00}, {"measurement": "TUBULIN POLYMERIZATION, Difference in rank sum (Dunn's Multiple Comparison Test)", "setting": "[2]; [10]", "result": 0.000}, {"measurement": "TUBULIN POLYMERIZATION, Difference in rank sum (Dunn's Multiple Comparison Test)", "setting": "[2]; BTZ+ CX-8998 3 mg/kg vs BTZ+ CX-8998 30 mg/kg, P < 0.05 *", "result": 19.00}, {"measurement": "TUBULIN POLYMERIZATION, Difference in rank sum (Dunn's Multiple Comparison Test)", "setting": "[2]; BTZ+ CX-8998 10 mg/kg vs BTZ+ CX-8998 30 mg/kg, P < 0.05 *", "result": 19.00}, {"measurement": "TUBULIN POLYMERIZATION, Difference in rank sum (Dunn's Multiple Comparison Test)", "setting": "[2]; CTRL vs BTZ+ CX-8998 3 mg/kg, P < 0.05 *", "result": "−15.64"}, {"measurement": "TUBULIN POLYMERIZATION, Difference in rank sum (Dunn's Multiple Comparison Test)", "setting": "[2]; CTRL vs BTZ+ CX-8998 10 mg/kg, P < 0.05 *", "result": "−15.46"}, {"measurement": "TUBULIN POLYMERIZATION, Difference in rank sum (Dunn's Multiple Comparison Test)", "setting": "[2]; [11]", "result": 0.2576}, {"measurement": "NCV OF SCIATIC NERVE (5 weeks), Difference in rank sum (Dunn's Multiple Comparison Test)", "setting": "[3]; [7]", "result": 6.667}, {"measurement": "NCV OF SCIATIC NERVE (8 weeks), Difference in rank sum (Dunn's Multiple Comparison Test)", "setting": "[3]; [7]", "result": "−10.12"}, {"measurement": "NCV OF SCIATIC NERVE (8 weeks), Difference in rank sum (Dunn's Multiple Comparison Test)", "setting": "[3]; BTZ vs BTZ+ CX-8998 10 mg/kg, P < 0.05 *", "result": "−19.26"}, {"measurement": "NCV OF SCIATIC NERVE (5 weeks), Difference in rank sum (Dunn's Multiple Comparison Test)", "setting": "[3]; [8]", "result": 2.583}, {"measurement": "NCV OF SCIATIC NERVE (8 weeks), Difference in rank sum (Dunn's Multiple Comparison Test)", "setting": "[3]; BTZ vs BTZ+ CX-8998 30 mg/kg, P < 0.05 *", "result": "−19.77"}, {"measurement": "NCV OF SCIATIC NERVE (5 weeks), Difference in rank sum (Dunn's Multiple Comparison Test)", "setting": "[3]; [9]", "result": 5.250}, {"measurement": "NCV OF SCIATIC NERVE (5 weeks), Difference in rank sum (Dunn's Multiple Comparison Test)", "setting": "[3]; [10]", "result": "−4.083"}, {"measurement": "NCV OF SCIATIC NERVE (8 weeks), Difference in rank sum (Dunn's Multiple Comparison Test)", "setting": "[3]; [10]", "result": "−9.136"}, {"measurement": "NCV OF SCIATIC NERVE (5 weeks), Difference in rank sum (Dunn's Multiple Comparison Test)", "setting": "[3]; [12]", "result": "−1.417"}, {"measurement": "NCV OF SCIATIC NERVE (8 weeks), Difference in rank sum (Dunn's Multiple Comparison Test)", "setting": "[3]; [12]", "result": "−9.652"}, {"measurement": "NCV OF SCIATIC NERVE (5 weeks), Difference in rank sum (Dunn's Multiple Comparison Test)", "setting": "[3]; [13]", "result": 2.667}, {"measurement": "NCV OF SCIATIC NERVE (8 weeks), Difference in rank sum (Dunn's Multiple Comparison Test)", "setting": "[3]; [13]", "result": "−0.5152"}, {"measurement": "NCV OF SCIATIC NERVE (5 weeks), Difference in rank sum (Dunn's Multiple Comparison Test)", "setting": "[3]; [14]", "result": 8.917}, {"measurement": "NCV OF SCIATIC NERVE (8 weeks), Difference in rank sum (Dunn's Multiple Comparison Test)", "setting": "[3]; [14]", "result": 11.98}, {"measurement": "NCV OF SCIATIC NERVE (5 weeks), Difference in rank sum (Dunn's Multiple Comparison Test)", "setting": "[3]; [15]", "result": 4.833}, {"measurement": "NCV OF SCIATIC NERVE (8 weeks), Difference in rank sum (Dunn's Multiple Comparison Test)", "setting": "[3]; [15]", "result": 2.848}, {"measurement": "NCV OF SCIATIC NERVE (5 weeks), Difference in rank sum (Dunn's Multiple Comparison Test)", "setting": "[3]; [11]", "result": 7.500}, {"measurement": "NCV OF SCIATIC NERVE (8 weeks), Difference in rank sum (Dunn's Multiple Comparison Test)", "setting": "[3]; [11]", "result": 2.333}, {"measurement": "body weight", "setting": "[4]", "result": "transient body weight loss during first two weeks of treatment and no weight gain at day 18 and 28"}, {"measurement": "tolerability", "setting": "[5]; BTZ in combination with CX-8998", "result": "well tolerated"}, {"measurement": "mortality (animals)", "setting": "[5]; one each in combinations of BTZ with 3 mg/kg and 10 mg/kg CX-8998", "result": "two"}, {"measurement": "body weight change", "setting": "[5]; weeks 5 and 8, BTZ in combination with 3, 10 and 30 mg/kg CX-8998", "result": "not significantly different"}, {"measurement": "DYNAMIC TEST 5 WEEKS, Difference in rank sum (Dunn's Multiple Comparison Test)", "setting": "[6]", "result": "−13.99"}]}]}
